HELM strings list units from the 5' end as sugar, base in round brackets, then linkage (d deoxyribose, r ribose, m 2'-O-methyl, p phosphodiester). Strings are as the collection lists them; they lack the last nucleoside at the 3' end of the tested compound. [moe] = 2'-O-(2-methoxyethyl) (MOE); [sp] = phosphorothioate linkage; [m5C] = 5-methylcytosine

This data set concerns the target APP. As to the kind of experiment: mouse, dose not given. The following applies: ASO.

Substance “RNA1{[moe](G)[sp].[moe]([m5C])p.[moe](A)p.[moe]([m5C])p.[moe](A)[sp].d(A)[sp].d(A)[sp].d(T)[sp].d(T)[sp].d(T)[sp].d(T)[sp].d(A)[sp].d(T)[sp].d([m5C])[sp].d(A)[sp].[moe]([m5C])p.[moe](A)p.[moe](T)[sp].[moe]([m5C])}$$$$ (last 3' nucleoside missing)” came in with a 3 h FOB score of 0 score 0-7.
The value for “RNA1{[moe](G)[sp].[moe]([m5C])p.[moe](A)p.[moe]([m5C])p.[moe](A)[sp].d(A)[sp].d(T)[sp].d(T)[sp].d(A)[sp].d(T)[sp].d(T)[sp].d(G)[sp].d(T)[sp].d(T)[sp].d(T)[sp].[moe]([m5C])p.[moe]([m5C])p.[moe](T)[sp].[moe]([m5C])}$$$$ (last 3' nucleoside missing)” was 1 score 0-7; that for “RNA1{[moe](G)[sp].[moe]([m5C])p.[moe](A)p.[moe]([m5C])p.[moe](A)[sp].d(A)[sp].d([m5C])[sp].d(T)[sp].d(T)[sp].d(T)[sp].d(A)[sp].d(T)[sp].d(T)[sp].d(T)[sp].d([m5C])[sp].[moe](T)p.[moe](A)p.[moe](G)[sp].[moe](A)}$$$$ (last 3' nucleoside missing)” was 1 score 0-7.
The value for “RNA1{[moe](G)[sp].[moe]([m5C])p.[moe](A)p.[moe]([m5C])p.[moe](T)[sp].d(A)[sp].d([m5C])[sp].d(A)[sp].d(T)[sp].d(T)[sp].d(G)[sp].d([m5C])[sp].d(T)[sp].d(T)[sp].d([m5C])[sp].[moe](A)p.[moe](T)p.[moe](A)[sp].[moe]([m5C])}$$$$ (last 3' nucleoside missing)” was 1 score 0-7; that for “RNA1{[moe](G)[sp].[moe]([m5C])p.[moe](A)p.[moe]([m5C])p.[moe]([m5C])[sp].d(A)[sp].d(T)[sp].d([m5C])[sp].d(T)[sp].d(A)[sp].d(T)[sp].d(A)[sp].d(A)[sp].d(T)[sp].d(A)[sp].[moe]([m5C])p.[moe]([m5C])p.[moe](A)[sp].[moe](T)}$$$$ (last 3' nucleoside missing)” was 0 score 0-7; that for “RNA1{[moe](G)[sp].[moe]([m5C])p.[moe](G)p.[moe](G)p.[moe](A)[sp].d([m5C])[sp].d(A)[sp].d(T)[sp].d(A)[sp].d([m5C])[sp].d(T)[sp].d(T)[sp].d([m5C])[sp].d(T)[sp].d(T)[sp].[moe](T)p.[moe](A)p.[moe](G)[sp].[moe]([m5C])}$$$$ (last 3' nucleoside missing)” was 0 score 0-7.
To “RNA1{[moe](G)[sp].[moe]([m5C])p.[moe](G)p.[moe]([m5C])p.[moe](A)[sp].d(T)[sp].d(T)[sp].d(T)[sp].d(A)[sp].d(T)[sp].d(A)[sp].d([m5C])[sp].d(A)[sp].d(A)[sp].d(T)[sp].[moe](A)p.[moe](T)p.[moe](A)[sp].[moe]([m5C])}$$$$ (last 3' nucleoside missing)” belongs 0 score 0-7.
Take “RNA1{[moe](G)[sp].[moe]([m5C])p.[moe](G)p.[moe]([m5C])p.[moe](A)[sp].d(T)[sp].d(T)[sp].d(T)[sp].d(A)[sp].d([m5C])[sp].d(T)[sp].d(A)[sp].d(G)[sp].d([m5C])[sp].d(A)[sp].[moe]([m5C])p.[moe](A)p.[moe](T)[sp].[moe](T)}$$$$ (last 3' nucleoside missing)”: the 3 h FOB score was 1.67 score 0-7.
“RNA1{[moe](G)[sp].[moe]([m5C])p.[moe](T)p.[moe](A)p.[moe](T)[sp].d(G)[sp].d(A)[sp].d([m5C])[sp].d(A)[sp].d(A)[sp].d([m5C])[sp].d(A)[sp].d([m5C])[sp].d([m5C])[sp].d(G)[sp].[moe]([m5C])p.[moe]([m5C])p.[moe]([m5C])[sp].[moe](A)}$$$$ (last 3' nucleoside missing)” yielded a 3 h FOB score of 1 score 0-7.
To “RNA1{[moe](G)[sp].[moe]([m5C])p.[moe](T)p.[moe](A)p.[moe]([m5C])[sp].d(A)[sp].d(A)[sp].d(T)[sp].d(T)[sp].d(A)[sp].d(T)[sp].d([m5C])[sp].d([m5C])[sp].d(A)[sp].d([m5C])[sp].[moe](A)p.[moe](T)p.[moe](G)[sp].[moe](G)}$$$$ (last 3' nucleoside missing)” belongs 0 score 0-7.
In turn, “RNA1{[moe](G)[sp].[moe]([m5C])p.[moe](T)p.[moe](G)p.[moe](T)[sp].d(T)[sp].d(G)[sp].d(T)[sp].d(A)[sp].d(G)[sp].d(G)[sp].d(A)[sp].d(A)[sp].d([m5C])[sp].d(T)[sp].[moe]([m5C])p.[moe](G)p.[moe](A)[sp].[moe](A)}$$$$ (last 3' nucleoside missing)” returned a 3 h FOB score of 4 score 0-7.
The value for “RNA1{[moe](G)[sp].[moe]([m5C])p.[moe](T)p.[moe](T)p.[moe](A)[sp].d([m5C])[sp].d(A)[sp].d(T)[sp].d([m5C])[sp].d(A)[sp].d(T)[sp].d(T)[sp].d(T)[sp].d(T)[sp].d([m5C])[sp].[moe](T)p.[moe](T)p.[moe](G)[sp].[moe]([m5C])}$$$$ (last 3' nucleoside missing)” was 0 score 0-7; that for “RNA1{[moe](G)[sp].[moe]([m5C])p.[moe](T)p.[moe](T)p.[moe]([m5C])[sp].d(A)[sp].d(T)[sp].d(T)[sp].d(A)[sp].d([m5C])[sp].d([m5C])[sp].d(A)[sp].d([m5C])[sp].d(T)[sp].d(T)[sp].[moe]([m5C])p.[moe](T)p.[moe](G)[sp].[moe](A)}$$$$ (last 3' nucleoside missing)” was 1 score 0-7; that for “RNA1{[moe](G)[sp].[moe]([m5C])p.[moe](T)p.[moe]([m5C])p.[moe](A)[sp].d(G)[sp].d(A)[sp].d(G)[sp].d([m5C])[sp].d([m5C])[sp].d(A)[sp].d(G)[sp].d(G)[sp].d([m5C])[sp].d(G)[sp].[moe](A)p.[moe](G)p.[moe](T)[sp].[moe]([m5C])}$$$$ (last 3' nucleoside missing)” was 3 score 0-7.
As to “RNA1{[moe](G)[sp].[moe]([m5C])p.[moe](T)p.[moe]([m5C])p.[moe](A)[sp].d(T)[sp].d(T)[sp].d(T)[sp].d(T)[sp].d(T)[sp].d(T)[sp].d(T)[sp].d(T)[sp].d(A)[sp].d([m5C])[sp].[moe](A)p.[moe](T)p.[moe](G)[sp].[moe](A)}$$$$ (last 3' nucleoside missing)”, the 3 h FOB score is 0 score 0-7.
To “RNA1{[moe](G)[sp].[moe]([m5C])p.[moe]([m5C])p.[moe](A)p.[moe](A)[sp].d([m5C])[sp].d(T)[sp].d(T)[sp].d(A)[sp].d(T)[sp].d(T)[sp].d([m5C])[sp].d(T)[sp].d([m5C])[sp].d(A)[sp].[moe](A)p.[moe](G)p.[moe](G)[sp].[moe](G)}$$$$ (last 3' nucleoside missing)” belongs 1 score 0-7; to “RNA1{[moe](G)[sp].[moe]([m5C])p.[moe]([m5C])p.[moe](A)p.[moe](T)[sp].d(A)[sp].d(T)[sp].d(T)[sp].d(G)[sp].d(T)[sp].d([m5C])[sp].d(A)[sp].d(T)[sp].d(T)[sp].d(T)[sp].[moe](T)p.[moe](A)p.[moe]([m5C])[sp].[moe](A)}$$$$ (last 3' nucleoside missing)”, 1.33 score 0-7.
To “RNA1{[moe](G)[sp].[moe]([m5C])p.[moe]([m5C])p.[moe](T)p.[moe](T)[sp].d(A)[sp].d(T)[sp].d(T)[sp].d(A)[sp].d(T)[sp].d([m5C])[sp].d(T)[sp].d([m5C])[sp].d(A)[sp].d(A)[sp].[moe](A)p.[moe]([m5C])p.[moe](T)[sp].[moe]([m5C])}$$$$ (last 3' nucleoside missing)” belongs 0 score 0-7; to “RNA1{[moe](T)[sp].[moe](A)p.[moe](G)p.[moe](G)p.[moe](A)[sp].d(A)[sp].d([m5C])[sp].d(T)[sp].d([m5C])[sp].d(G)[sp].d(A)[sp].d(A)[sp].d([m5C])[sp].d([m5C])[sp].d(A)[sp].[moe]([m5C])p.[moe]([m5C])p.[moe](T)[sp].[moe]([m5C])}$$$$ (last 3' nucleoside missing)”, 0.5 score 0-7; to “RNA1{[moe](T)[sp].[moe](A)p.[moe](G)p.[moe](T)p.[moe](A)[sp].d([m5C])[sp].d(A)[sp].d(T)[sp].d(T)[sp].d([m5C])[sp].d([m5C])[sp].d(A)[sp].d([m5C])[sp].d(T)[sp].d(T)[sp].[moe](T)p.[moe](G)p.[moe](T)[sp].[moe](T)}$$$$ (last 3' nucleoside missing)”, 0 score 0-7.
“RNA1{[moe](T)[sp].[moe](A)p.[moe](T)p.[moe](G)p.[moe](A)[sp].d([m5C])[sp].d(A)[sp].d(A)[sp].d([m5C])[sp].d(A)[sp].d([m5C])[sp].d([m5C])[sp].d(G)[sp].d([m5C])[sp].d([m5C])[sp].[moe]([m5C])p.[moe](A)p.[moe]([m5C])[sp].[moe]([m5C])}$$$$ (last 3' nucleoside missing)” showed a 3 h FOB score of 4 score 0-7.
Substance “RNA1{[moe](T)[sp].[moe](A)p.[moe]([m5C])p.[moe](A)p.[moe](T)[sp].d([m5C])[sp].d(A)[sp].d(T)[sp].d(T)[sp].d(T)[sp].d(T)[sp].d([m5C])[sp].d(T)[sp].d(T)[sp].d(G)[sp].[moe]([m5C])p.[moe](A)p.[moe](G)[sp].[moe](T)}$$$$ (last 3' nucleoside missing)” came in with a 3 h FOB score of 2.75 score 0-7.
To “RNA1{[moe](T)[sp].[moe](G)[sp].[moe](T)[sp].[moe]([m5C])[sp].[moe](A)[sp].d([m5C])[sp].d(T)[sp].d(T)[sp].d(T)[sp].d([m5C])[sp].d(T)[sp].d(T)[sp].d([m5C])[sp].d(A)[sp].d(G)[sp].[moe]([m5C])[sp].[moe]([m5C])[sp].[moe](A)[sp].[moe](G)}$$$$ (last 3' nucleoside missing)” belongs 6 score 0-7.
As for “RNA1{[moe](T)[sp].[moe](G)p.[moe](A)p.[moe](T)p.[moe](G)[sp].d([m5C])[sp].d(A)[sp].d([m5C])[sp].d(A)[sp].d(T)[sp].d(A)[sp].d(T)[sp].d([m5C])[sp].d([m5C])[sp].d(A)[sp].[moe](G)p.[moe](G)p.[moe]([m5C])[sp].[moe](T)}$$$$ (last 3' nucleoside missing)”, the 3 h FOB score amounted to 0.25 score 0-7.
The value for “RNA1{[moe](T)[sp].[moe](G)p.[moe](G)p.[moe](G)p.[moe]([m5C])[sp].d(A)[sp].d(T)[sp].d([m5C])[sp].d(A)[sp].d(T)[sp].d(T)[sp].d(T)[sp].d(T)[sp].d(T)[sp].d(G)[sp].[moe]([m5C])p.[moe](T)p.[moe]([m5C])[sp].[moe]([m5C])}$$$$ (last 3' nucleoside missing)” was 0 score 0-7.

For the origin of these results see the OligoGym collection.
